Measured values published in PubChem BioAssay AID1963854 (Molecular Pharmacology Branch, DTP, NCI, 2024).

Tested on: 186277-243-T-J2-PDC complex spheroid viability
Assay: Anticancer human tumor 186277-243-T-J2-PDC patient-derived colon adenocarcinoma cell line growth inhibition [POLQ]
Conditions: for IC50: curve of first compound; for viability, T/C: stronger effect = lower value
Method in brief: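 Growth inhibition in 3D: complex spheroids (tumor PDC, HUVEC, MSC) treated with POLQ inhibitor combinations; where Cmax unknown, highest tested concentration 10 microM, except SN-38 at 1 microM.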

[1] = second compound 0.0316 µM, first compound 0.0316 µM
[2] = second compound 0.0316 µM, first compound 0.1 µM
[3] = second compound 0.0316 µM, first compound 0.316 µM
[4] = second compound 0.0316 µM, first compound 1 µM
[5] = second compound 0.0316 µM, first compound 3.16 µM
[6] = second compound 0.0316 µM, first compound 10 µM
[7] = second compound 0.1 µM, first compound 0.0316 µM
[8] = second compound 0.1 µM, first compound 0.1 µM
[9] = second compound 0.1 µM, first compound 0.316 µM
[10] = second compound 0.1 µM, first compound 1 µM
[11] = second compound 0.1 µM, first compound 3.16 µM
[12] = second compound 0.1 µM, first compound 10 µM
[13] = second compound 0.316 µM, first compound 0.0316 µM
[14] = second compound 0.316 µM, first compound 0.1 µM
[15] = second compound 0.316 µM, first compound 0.316 µM
[16] = second compound 0.316 µM, first compound 1 µM
[17] = second compound 0.316 µM, first compound 3.16 µM
[18] = second compound 0.316 µM, first compound 10 µM
[19] = second compound 1 µM, first compound 0.0316 µM
[20] = second compound 1 µM, first compound 0.1 µM
[21] = second compound 1 µM, first compound 0.316 µM
[22] = second compound 1 µM, first compound 1 µM
[23] = second compound 1 µM, first compound 3.16 µM
[24] = second compound 1 µM, first compound 10 µM
[25] = second compound 3.16 µM, first compound 0.0316 µM
[26] = second compound 3.16 µM, first compound 0.1 µM
[27] = second compound 3.16 µM, first compound 0.316 µM
[28] = second compound 3.16 µM, first compound 1 µM
[29] = second compound 3.16 µM, first compound 3.16 µM
[30] = second compound 3.16 µM, first compound 10 µM
[31] = second compound 10 µM, first compound 0.0316 µM
[32] = second compound 10 µM, first compound 0.1 µM
[33] = second compound 10 µM, first compound 0.316 µM
[34] = second compound 10 µM, first compound 1 µM
[35] = second compound 10 µM, first compound 3.16 µM
[36] = second compound 10 µM, first compound 10 µM
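Also: spheroids exposed to compounds for seven days.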
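For viability, T/C in this document: 100% = DMSO vehicle control viability.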

In the case of `CCc1cc2c(N3CCc4c(cc(Cn5ccnc5)cc4-c4cn(C)nc4C(F)(F)F)C3=O)cc(C)nc2c(OC)n1` + COC1C(OC(N)=O)C(O)C(Oc2ccc3c(O)c(NC(=O)c4ccc(O)c(CC=C(C)C)c4)c(=O)oc3c2C)OC1(C)C, the IC50 (second compound 0.0316 µM) is reported as > 10 µM, the IC50 (second compound 0.1 µM) is reported as > 10 µM and the IC50 (second compound 0.316 µM) is reported as > 10 µM. For the same compound, the IC50 (second compound 1 µM) was > 10 µM, the IC50 (second compound 3.16 µM) was > 10 µM and the IC50 (second compound 10 µM) was > 10 µM. The viability, T/C [1] was 100%, the viability, T/C [2] was 91.7% and the viability, T/C [3] was 101%. The viability, T/C [4] was 80.4%, the viability, T/C [5] was 80.5% and the viability, T/C [6] was 77.4%. For the same compound, the viability, T/C [7] was 88.1%, the viability, T/C [8] was 92.2% and the viability, T/C [9] was 92.7%. It also gave a viability, T/C [10] of 96.9%, a viability, T/C [11] of 100% and a viability, T/C [12] of 80.4%. The viability, T/C [13] was 95.6%, the viability, T/C [14] was 101% and the viability, T/C [15] was 101%. For the same compound, the viability, T/C [16] was 93.5%, the viability, T/C [17] was 85.3% and the viability, T/C [18] was 84.4%. For the same compound, the viability, T/C [19] was 99.1%, the viability, T/C [20] was 101% and the viability, T/C [21] was 111%. The viability, T/C [22] was 104%, the viability, T/C [23] was 104% and the viability, T/C [24] was 73.7%. For the same compound, the viability, T/C [25] was 93.4%, the viability, T/C [26] was 96.6% and the viability, T/C [27] was 86.3%. For the same compound, the viability, T/C [28] was 86.2%, the viability, T/C [29] was 98.9% and the viability, T/C [30] was 72.4%. The viability, T/C [31] was 96.5%, the viability, T/C [32] was 102% and the viability, T/C [33] was 104%. For the same compound, the viability, T/C [34] was 107%, the viability, T/C [35] was 99.2% and the viability, T/C [36] was 86.1%.
With `Nc1ccn(C2OC(CO)C(O)C2(F)F)c(=O)n1` (stereo unspecified) + Cc1cccc(N(C)C(=O)C2C(O)CCN2c2nc(C)cc(C(F)(F)F)c2C#N)c1 the IC50 (second compound 0.0316 µM) was < 0.0316 µM, the IC50 (second compound 0.1 µM) was < 0.0316 µM and the IC50 (second compound 0.316 µM) was < 0.0316 µM. For the same compound, the IC50 (second compound 1 µM) was < 0.0316 µM, the IC50 (second compound 3.16 µM) was < 0.0316 µM and the IC50 (second compound 10 µM) was < 0.0316 µM. For the same compound, the viability, T/C [1] was 7.07%, the viability, T/C [2] was 6.17% and the viability, T/C [3] was 6.28%. For the same compound, the viability, T/C [4] was 7.91%, the viability, T/C [5] was 7.05% and the viability, T/C [6] was 6.44%. It also gave a viability, T/C [7] of 7.12%, a viability, T/C [8] of 6.99% and a viability, T/C [9] of 7.56%. It also gave a viability, T/C [10] of 8.01%, a viability, T/C [11] of 7.17% and a viability, T/C [12] of 6.37%. The viability, T/C [13] was 7.95%, the viability, T/C [14] was 7.37% and the viability, T/C [15] was 7%. The viability, T/C [16] was 7.74%, the viability, T/C [17] was 7.97% and the viability, T/C [18] was 5.75%. It also gave a viability, T/C [19] of 8.61%, a viability, T/C [20] of 6.36% and a viability, T/C [21] of 7.13%. It also gave a viability, T/C [22] of 7.45%, a viability, T/C [23] of 8.07% and a viability, T/C [24] of 6.24%. The viability, T/C [25] was 6.68%, the viability, T/C [26] was 6.49% and the viability, T/C [27] was 6.57%. For the same compound, the viability, T/C [28] was 7.84%, the viability, T/C [29] was 7.96% and the viability, T/C [30] was 6.36%. For the same compound, the viability, T/C [31] was 6.88%, the viability, T/C [32] was 5.82% and the viability, T/C [33] was 5.86%. It also gave a viability, T/C [34] of 6.97%, a viability, T/C [35] of 6.86% and a viability, T/C [36] of 5.93%.
With `COc1cc2cc(C(=O)CCC(=O)O)sc2cc1OC` + COC1C(OC(N)=O)C(O)C(Oc2ccc3c(O)c(NC(=O)c4ccc(O)c(CC=C(C)C)c4)c(=O)oc3c2C)OC1(C)C the IC50 (second compound 0.0316 µM) was > 10 µM, the IC50 (second compound 0.1 µM) was > 10 µM and the IC50 (second compound 0.316 µM) was > 10 µM. The IC50 (second compound 1 µM) was > 10 µM, the IC50 (second compound 3.16 µM) was > 10 µM and the IC50 (second compound 10 µM) was > 10 µM. For the same compound, the viability, T/C [1] was 110%, the viability, T/C [2] was 99.3% and the viability, T/C [3] was 101%. For the same compound, the viability, T/C [4] was 99.2%, the viability, T/C [5] was 106% and the viability, T/C [6] was 96.6%. For the same compound, the viability, T/C [7] was 98.3%, the viability, T/C [8] was 88% and the viability, T/C [9] was 103%. The viability, T/C [10] was 101%, the viability, T/C [11] was 103% and the viability, T/C [12] was 103%. It also gave a viability, T/C [13] of 102%, a viability, T/C [14] of 102% and a viability, T/C [15] of 93.6%. The viability, T/C [16] was 99.5%, the viability, T/C [17] was 98.1% and the viability, T/C [18] was 120%. The viability, T/C [19] was 111%, the viability, T/C [20] was 99.1% and the viability, T/C [21] was 109%. For the same compound, the viability, T/C [22] was 106%, the viability, T/C [23] was 110% and the viability, T/C [24] was 103%. The viability, T/C [25] was 89.5%, the viability, T/C [26] was 108% and the viability, T/C [27] was 100%. It also gave a viability, T/C [28] of 98.9%, a viability, T/C [29] of 105% and a viability, T/C [30] of 114%. The viability, T/C [31] was 106%, the viability, T/C [32] was 111% and the viability, T/C [33] was 110%. The viability, T/C [34] was 117%, the viability, T/C [35] was 105% and the viability, T/C [36] was 101%.
